Six molecules from PMC11476629, “Exploring a Potential Optimization Route for Peptide Ligands of the Sam Domain from the Lipid Phosphatase Ship2” (International Journal of Molecular Sciences, 2024) can be followed below.

“And” between values parts separate entries of the source, which are not always exact repeats. Identical values can stand only once. Residues, ends and D or L forms follow the SMILES beside them. No end group written: not given here. *: point of attachment. FITC = O=C1OC2(c3ccc(O)cc3Oc3cc(O)ccc32)c2ccc(NC(=S)*)cc21; Ahx = NCCCCCC(=O)O; βAla = NCCC(=O)O

Data set [1] addresses T1, Ship2-Sam (Homo sapiens, UniProt O15357).
T1 construct: The Sam (Sterile alpha motif) domain of the lipid phosphatase Ship2 (Ship2-Sam); made in house; host or cells: E. coli
T1 sequence (O15357 1196-1258 limits assumed): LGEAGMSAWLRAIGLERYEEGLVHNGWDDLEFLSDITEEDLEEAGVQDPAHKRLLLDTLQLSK
The experiment in a line: NMR chemical shift perturbation studies with Ship2-Sam. It counts as binding. The following applies: 1D 1H: Ship2-Sam 27 µM, peptide 273 µM; 1H-15N HSQC: Ship2-Sam 20 µM, peptide 200 µM; PBS, 298 K. The protocol: The interaction between diverse PSscan peptides and Ship2-Sam was assessed by NMR chemical shift perturbation (CSP) studies using both 1D [^1H] and 2D [^1H-^15N] HSQC experiments (Figure 4 and Figures S7–S10).
[^1H-^15N] HSQC spectra for chemical shift perturbation studies were acquired with ^15N labeled Ship2-Sam (20 μM concentration) in the absence and presence of PSscan255, PSscan258, and PSscan266 peptides (200 μM concentrations). For these experiments, concentrated peptide stocks in PBS were diluted in protein samples. The pH was checked upon each peptide’s addition and eventually carefully adjusted with NaOH or HCl solutions to avoid pH variations in the NMR samples. Chemical shift perturbation studies with 1D [^1H] NMR experiments were similarly recorded for Ship2-Sam alone (27 μM concentration) and in the presence of PSscan peptides (273 μM concentration). Spectra under identical experimental conditions were recorded for Ship2-Sam alone and following the addition of the control peptides.

Another data set deals with PC-3 cells. As to conditions: 50 µM, 4 h, fluorescence (deconvolution) microscopy.
Data set [2] in a line: Serum stability in FBS (RP-HPLC). Type of data set: in vitro ADME. The following applies: 25% fetal bovine serum, 25% FBS, 37 °C, peptide 80 µM, RP-HPLC UV peak area, average of two assays. On the procedure: The PSscan255 peptide was mixed with 25% fetal bovine serum (FBS, from Merck group, Milan, Italy), previously incubated at 37 °C for 15 min, to obtain a peptide concentration equal to 80 µM in the end. These mixtures were kept at 37 °C and, at several time intervals (0, 1, 2, 3, 4, 5, 17, and 19 h), aliquots of the incubating solutions (50 µL) were quenched by using 15% trifluoroacetic acid (TFA) (50 µL) and then incubated at 2 °C for 15 min. Next, serum proteins were discarded by centrifugation (15 min at 3000 rpm), and samples were subjected to reverse-phase high-performance liquid chromatography (RP-HPLC). RP-HPLC runs were conducted with an HPLC LC-4000 series (Jasco) equipped with a UV detector by using a C18-Kinetek column (Phenomenex, Milan, Italy). Gradient elution was conducted at 25 °C; the gradient started with buffer A, consisting of water with 0.1% TFA. Then buffer B, consisting of acetonitrile with 0.1% TFA, was added from 5 to 70% in 20 min. The peak areas were integrated at diverse time lapses. Two assays were performed, and data points represent average values over the two experiments.

Data set [3] addresses T1, Ship2-Sam. Kind of data set: BLI (BioLayer Interferometry) interaction assay. The following applies: biotinylated-pegylated PSscan255 immobilized on streptavidin biosensor; Ship2-Sam 20-500 µM; 1:1 Langmuir model, global analysis; read-out: KD for binding to Ship2-Sam. On the procedure: The peptide was purchased in the biotinylated–pegylated form (Table S4) and immobilized on a streptavidin-coated biosensor. Kinetic experiments, carried out at diverse Ship2-Sam concentrations in the range of 20–500 µM (Figure S19), provided dose–response signals, allowing the estimation of a KD value equal to (70 ± 40) µM.
For BLI interaction assays, the Sartorius Octet® N1 System and streptavidin (SA)-coated biosensor tips (Sartorius Italy S.r.l., Grassina-Bagno a Ripoli (FI), Italy) were employed. SA biosensor tips were first hydrated in 1X PBS buffer; then, to achieve ligand immobilization, the tips were dipped, for 300 sec with 1000 rpm agitation, into 4 µL of biotinylated–pegylated PSscan255 solution (50 µg/mL). Following peptide loading, each tip was placed in contact, for 300 s with a 1000 rpm agitation speed, with 4 µL of Ship2-Sam protein at several concentrations (20, 50, 100, 300, and 500 µM). All mathematical manipulations were handled by the Octet Analysis Studio 12.2 software from Sartorius. A 1:1 Langmuir binding model was used for data fitting, and the KDs were obtained through the global analysis mode.

Data set [4] in a line: Peptide self-aggregation by 1D 1H NMR at diverse concentrations. As to conditions: 1D 1H NMR in PBS/D2O (90/10 v/v), peptide 50-300 µM, constant pH. It counts as physicochemical. On the procedure: In addition, to better understand results from NMR interaction assays, we evaluated whether peptide self-aggregation phenomena could occur in the peptide concentration range employed. Thus, NMR spectra were recorded for each PSscan peptide at diverse concentrations in the range of 50–300 µM (Figure 5, Figures S13 and S14). As all three peptides are rich in aromatic and positively charged residues, self-aggregation can occur not only through π–π stacking interactions but also through cation–π contacts between diverse peptide units. To better identify the signals of aromatic protons within 1D [^1H] NMR spectra in PBS, hydrogen/deuterium exchange experiments were conducted (Figure 5 and Figure S14). Indeed, an excess of D2O in solution induces the disappearance of HN and other exchangeable exposed protons, while aromatic and side-chain protons remain clearly visible (Figure 5 and Figure S14). When recording NMR spectra of peptides at different concentrations, particular care was also taken to keep the pH at a constant value to avoid undesired chemical shift changes.

The target in another data set is T2, PSscan255 (synthetic construct, also: biotinylated and pegylated, positions not given here).
T2 chain: KREWYKFLANKRIAY
The experiment in a line: BLI.

Protocol for PC-3 cells: The FITC-TAT-PSscan255 peptide (50 μM) was added for 4 h to PC-3 cells (5 × 10^4/mL) that were positioned on coverslips inside a Petri dish. Following incubation, cells were first washed three times with PBS and then fixed in 4% paraformaldehyde in PBS for 15 min. Next, cell permeabilization was achieved via treatment with 0.3% Triton-X 100 in PBS for 30 min. After blocking for 15 min with 2% bovine serum albumin, the coverslips were marked with phalloidin-iFluor 594 (Abcam, Milan, Italy), which was diluted 1:1000 for 1 h. After three extra rinses with PBS, the nuclei were stained with Hoechst 33342 (Thermo Fisher Scientific, Milan, Italy), diluted 1:2000, and incubated for 15 min in the dark. Lastly, the coverslips were mounted onto microscope slides with Mowiol (Sigma from Merck Group, Milan, Italy) and permitted to cure for at least 48 h before undergoing microscopy imaging. Images were taken with a Nikon Eclipse Ti2-E inverted research microscope (Nikon Instruments, Melville, NY, USA) using standard phase contrast, epifluorescence microscopy, and deconvolution. Image acquisition was accomplished with an Andor Zyla 4.2+ sCMOS high-sensitivity monochrome camera and managed by Nikon NIS-Elements Advanced Research (AR) image acquisition and analysis software.

Take `CSCC[C@H](NC(=O)[C@H](Cc1ccccc1)NC(=O)[C@H](CCCCN)NC(=O)[C@H](CC(=O)O)NC(=O)[C@H](CCC(=O)O)NC(=O)[C@H](CCCNC(=N)N)NC(=O)[C@H](CCCNC(=N)N)NC(=O)[C@@H](NC(=O)[C@@H]1CCCN1C(=O)CNC(C)=O)[C@@H](C)O)C(=O)N[C@@H](Cc1ccc(O)cc1)C(=O)N[C@@H](Cc1ccccc1)C(N)=O` [CTRL, reference compound] (Ac-GPTRREDKFMYF-NH2): the “Interaction with Ship2-Sam by chemical shift perturbation” value on Ship2-Sam [1] is “did not reveal high-affinity binding”.
For `CC[C@H](C)[C@H](NC(=O)[C@H](CCCNC(=N)N)NC(=O)[C@H](CCCCN)NC(=O)[C@H](CC(N)=O)NC(=O)[C@H](C)NC(=O)[C@H](CC(C)C)NC(=O)[C@H](Cc1ccccc1)NC(=O)[C@H](CCCCN)NC(=O)[C@H](Cc1ccc(O)cc1)NC(=O)[C@H](Cc1c[nH]c2ccccc12)NC(=O)[C@H](CCC(=O)O)NC(=O)[C@H](CCCNC(=N)N)NC(=O)[C@H](CCCCN)NC(=O)CNC(=O)CNC(=O)[C@H](CCC(N)=O)NC(=O)[C@@H]1CCCN1C(=O)[C@@H]1CCCN1C(=O)[C@H](CCCNC(=N)N)NC(=O)[C@H](CCCNC(=N)N)NC(=O)[C@H](CCCNC(=N)N)NC(=O)[C@H](CCC(N)=O)NC(=O)[C@H](CCCNC(=N)N)NC(=O)[C@H](CCCNC(=N)N)NC(=O)[C@H](CCCCN)NC(=O)[C@H](CCCCN)NC(=O)[C@H](CCCNC(=N)N)NC(=O)CNC(=O)CCNC(=O)CCCCCNC(=S)Nc1ccc2c(c1)C(=O)OC21c2ccc(O)cc2Oc2cc(O)ccc21)C(=O)N[C@@H](C)C(=O)N[C@@H](Cc1ccc(O)cc1)C(N)=O` [FITC-TAT-PSscan255] ({FITC-Ahx-βAla}-GRKKRRQRRRPPQGGKREWYKFLANKRIAY-NH2), the “Cellular localization after uptake” value in the data set on PC-3 cells was “positioned in the cytoplasm”.
Consider `CC[C@H](C)[C@H](NC(=O)[C@H](CCCNC(=N)N)NC(=O)[C@H](CCCCN)NC(=O)[C@H](CC(N)=O)NC(=O)[C@H](C)NC(=O)[C@H](CC(C)C)NC(=O)[C@H](Cc1ccccc1)NC(=O)[C@H](CCCCN)NC(=O)[C@H](Cc1ccc(O)cc1)NC(=O)[C@H](Cc1c[nH]c2ccccc12)NC(=O)[C@H](CCC(=O)O)NC(=O)[C@H](CCCNC(=N)N)NC(=O)[C@H](CCCCN)NC(C)=O)C(=O)N[C@@H](C)C(=O)N[C@@H](Cc1ccc(O)cc1)C(N)=O` [PSscan255] (Ac-KREWYKFLANKRIAY-NH2), for which the remaining at 5 h, 80 µM in data set [2] (5 h, read-out: Peptide recovered after incubation with FBS) worked out at 80%. For the same molecule, the remaining at 19 h, 80 µM in data set [2] (19 h, read-out: Peptide not degraded after incubation with FBS) was found to be 50%. In addition, on Ship2-Sam [3], the dissociation constant Kd is ~70 µM and 70 µM.
Take `CC[C@H](C)[C@H](NC(=O)[C@H](CCCNC(=N)N)NC(=O)[C@H](CCCCN)NC(=O)[C@H](CC(N)=O)NC(=O)[C@H](C)NC(=O)[C@H](CCSC)NC(=O)[C@H](Cc1ccccc1)NC(=O)[C@H](CCCCN)NC(=O)[C@H](Cc1ccc(O)cc1)NC(=O)[C@H](Cc1c[nH]c2ccccc12)NC(=O)[C@H](CC(=O)O)NC(=O)[C@H](CCCNC(=N)N)NC(=O)[C@H](CCCCN)NC(C)=O)C(=O)N[C@@H](C)C(=O)N[C@@H](Cc1ccc(O)cc1)C(N)=O` [PSscan258] (Ac-KRDWYKFMANKRIAY-NH2): at Ship2-Sam [1], the “Interaction with Ship2-Sam by chemical shift perturbation” value is “weakest”.
`CC[C@H](C)[C@H](NC(=O)[C@H](CCCNC(=N)N)NC(=O)[C@H](CCCCN)NC(=O)[C@H](CC(N)=O)NC(=O)[C@H](C)NC(=O)[C@H](CCSC)NC(=O)[C@H](Cc1ccccc1)NC(=O)[C@H](CCCCN)NC(=O)[C@H](Cc1ccc(O)cc1)NC(=O)[C@H](Cc1c[nH]c2ccccc12)NC(=O)[C@H](CCC(=O)O)NC(=O)[C@H](CCCNC(=N)N)NC(=O)[C@H](CCSC)NC(C)=O)C(=O)N[C@@H](C)C(=O)N[C@@H](Cc1ccc(O)cc1)C(N)=O` [PSscan266] (Ac-MREWYKFMANKRIAY-NH2): the Self-aggregation entry in data set [4] is “could be affected by a certain amount of self-aggregation”. Moreover, the “Interaction with Ship2-Sam by chemical shift perturbation” value at Ship2-Sam [1] is given as “weak interactions”.

B1: Ship2-Sam Sam (protein)
chain: ASGLGEAGMSAWLRAIGLERYEEGLVHNGWDDLEFLSDITEEDLEEAGVQDPAHKRLLLDTLQLSK
Consider B1, for which binding with PSscan255 was put at a Kd of 70 µM.
